Each block holds one molecule with its values, some of them ahead of it. Active and inactive are the calls of the source. No cut-off for these calls is given here.
Tests used:
[1] = Chemical stability of the compound in pH 6 to 8 PBS at 100 uM after 24 hrs by RP-HPLC analysis; format: physicochemical; details: buffer, pH 6, 24 h
[2] = Chemical stability of the compound in pH >8 solution at 100 uM after 24 hrs by RP-HPLC analysis; format: physicochemical
[3] = molecular target: T1, 7-methylguanosine phosphate-specific 5'-nucleotidase (Homo sapiens) (UniProt Q969T7); experiment: Inhibition of recombinant His6/SUMO-tagged human cN3B (1 to 300 residues) expressed in Escherichia coli BL21(DE3) RIL assessed as reduction in dephosphorylation of m7GMP substrate at 200 uM after 45 mins by HPLC method relative to control
T1 sequence (whole entry): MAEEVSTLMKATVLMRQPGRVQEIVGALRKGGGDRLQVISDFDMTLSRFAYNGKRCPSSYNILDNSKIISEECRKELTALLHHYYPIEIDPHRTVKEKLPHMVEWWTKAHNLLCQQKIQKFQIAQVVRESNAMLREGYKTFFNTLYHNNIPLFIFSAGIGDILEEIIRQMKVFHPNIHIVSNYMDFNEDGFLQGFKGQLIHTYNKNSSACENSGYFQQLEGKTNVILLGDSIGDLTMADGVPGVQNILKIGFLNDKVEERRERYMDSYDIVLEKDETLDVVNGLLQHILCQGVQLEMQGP

[4] = molecular target: T1, 7-methylguanosine phosphate-specific 5'-nucleotidase (Homo sapiens); experiment: Activation of recombinant His6/SUMO-tagged human cN3B (1 to 300 residues) expressed in Escherichia coli BL21(DE3) RIL assessed as increase in dephosphorylation of m7GMP substrate at 100 uM after 45 mins by malachite green dye based assay
[5] = molecular target: T1, 7-methylguanosine phosphate-specific 5'-nucleotidase (Homo sapiens); experiment: Substrate activity at recombinant His6/SUMO-tagged human cN3B (1 to 300 residues) expressed in Escherichia coli BL21(DE3) RIL assessed as compound dephosphorylation at 100 uM up to 150 mins by HPLC method
m7GpppX diphosphatase = molecular target: T2, m7GpppX diphosphatase (Homo sapiens, UniProt Q96C86); experiment: Inhibition of human DCPS using m7GMPF as substrate after 30 mins by nucleoside 5'-fluorophosphate probe based HTS assay
T2 sequence (Q96C86 whole entry): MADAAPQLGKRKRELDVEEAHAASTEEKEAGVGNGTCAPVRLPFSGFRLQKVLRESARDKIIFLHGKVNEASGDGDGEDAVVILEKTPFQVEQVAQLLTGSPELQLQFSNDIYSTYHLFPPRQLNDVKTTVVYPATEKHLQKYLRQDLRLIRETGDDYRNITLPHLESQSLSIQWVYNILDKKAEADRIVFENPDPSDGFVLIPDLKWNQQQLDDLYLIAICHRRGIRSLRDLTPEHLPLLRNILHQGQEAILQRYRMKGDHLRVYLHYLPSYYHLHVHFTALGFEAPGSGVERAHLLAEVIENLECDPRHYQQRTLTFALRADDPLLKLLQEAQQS

[6] = molecular target: T1, 7-methylguanosine phosphate-specific 5'-nucleotidase (Homo sapiens); experiment: Inhibition of recombinant His6/SUMO-tagged human cN3B (1 to 300 residues) expressed in Escherichia coli BL21(DE3) RIL assessed as reduction in dephosphorylation of m7GMP substrate at 200 uM after 45 mins by malachite green dye based assay relative to control
[7] = molecular target: T1, 7-methylguanosine phosphate-specific 5'-nucleotidase (Homo sapiens); experiment: Activation of recombinant His6/SUMO-tagged human cN3B (1 to 300 residues) expressed in Escherichia coli BL21(DE3) RIL assessed as increase in dephosphorylation of m7GMP substrate at 200 uM after 45 mins by HPLC method
[8] = molecular target: T3, 7-methylguanosine phosphate-specific 5'-nucleotidase (Homo sapiens, UniProt Q969T7); experiment: Inhibition of recombinant His6/SUMO-tagged human cN3B (1 to 300 residues) expressed in Escherichia coli BL21(DE3) RIL assessed as reduction in dephosphorylation of m7GMP substrate after 45 mins by malachite green dye based assay
T3 sequence (Q969T7 whole entry): T1 sequence (whole entry)

[9] = molecular target: T3, 7-methylguanosine phosphate-specific 5'-nucleotidase; experiment: Inhibition of recombinant His6/SUMO-tagged human cN3B (1 to 300 residues) expressed in Escherichia coli BL21(DE3) RIL assessed as reduction in dephosphorylation of m7GMP substrate after 45 mins by HPLC method
[10] = molecular target: Eukaryotic translation initiation factor 4E (Mus musculus, UniProt P63073); experiment: Inhibition of fluorescein-labeled m7GDPC4H5 binding to mouse eIF4E (28 to 217 residues) by MST method; details: read-out: Kd(app)
Sequence of Eukaryotic translation initiation factor 4E (Mus musculus, UniProt P63073) (P63073 whole entry, the tested form may be a part): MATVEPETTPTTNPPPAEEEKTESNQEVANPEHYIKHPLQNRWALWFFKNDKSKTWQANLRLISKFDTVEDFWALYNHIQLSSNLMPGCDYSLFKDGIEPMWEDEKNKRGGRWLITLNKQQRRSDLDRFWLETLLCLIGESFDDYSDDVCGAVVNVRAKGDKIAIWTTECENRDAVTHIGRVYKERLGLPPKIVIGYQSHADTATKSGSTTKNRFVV

[11] = molecular target: Eukaryotic translation initiation factor 4E (Homo sapiens, UniProt P06730); experiment: Inhibition of eIF4E (unknown origin)
Sequence of Eukaryotic translation initiation factor 4E (Homo sapiens, UniProt P06730) (P06730 whole entry, the tested form may be a part): as the sequence (P63073 whole entry, the tested form may be a part) above, with T12P, P16T, A17T, D174E counted along it

Homo sapiens = organism: Homo sapiens; experiment: Selectivity ratio of IC50 for human DCPS to IC50 for recombinant His6/SUMO-tagged human cN3B (1 to 300 residues) expressed in Escherichia coli BL21(DE3) RIL
[12] = molecular target: T1, 7-methylguanosine phosphate-specific 5'-nucleotidase (Homo sapiens); experiment: Inhibition of recombinant His6/SUMO-tagged human cN3B (1 to 300 residues) expressed in Escherichia coli BL21(DE3) RIL assessed as reduction in conversion of m7GMP to m7Guo at 200 uM after 45 mins in presence of human DCPS by HPLC method
[13] = molecular target: T4, m7GpppX diphosphatase (Homo sapiens) (UniProt Q96C86); experiment: Inhibition of human DCPS using m7GMPF assessed as reduction in conversion of m7GpppG to GDP at 200 uM after 45 mins in presence of human cN3B by HPLC method
T4 sequence (whole entry): T2 sequence (Q96C86 whole entry)

[14] = substrate: C[n+]1cn([C@@H]2O[C@H](Cn3cc(OCP(=O)([O-])O)nn3)[C@@H](O)[C@H]2O)c2nc(N)[nH]c(=O)c21; experiment: Substrate activity at recombinant His6/SUMO-tagged human cN3B (1 to 300 residues) expressed in Escherichia coli BL21(DE3) RIL assessed as compound dephosphorylation up to 30 mins by malachite green dye based assay
[15] = substrate: C[n+]1cn([C@@H]2O[C@H](Cn3cc(OCP(=O)([O-])O)nn3)[C@@H](O)[C@H]2O)c2nc(N)[nH]c(=O)c21; experiment: Substrate activity at recombinant His6/SUMO-tagged human cN3B (1 to 300 residues) expressed in Escherichia coli BL21(DE3) RIL assessed as compound dephosphorylation by measuring ratio of Kcat to Km up to 30 mins by malachite green dye based assay
[16] = substrate: C[n+]1cn([C@@H]2O[C@H](Cn3cc(OCP(=O)([O-])O)nn3)[C@@H](O)[C@H]2O)c2nc(N)[nH]c(=O)c21; experiment: Substrate activity at recombinant His6/SUMO-tagged human cN3B (1 to 300 residues) expressed in Escherichia coli BL21(DE3) RIL assessed as compound dephosphorylation by Vmax up to 30 mins by malachite green dye based assay
[17] = substrate: C[n+]1cn([C@@H]2O[C@H](Cn3cc(OCP(=O)([O-])O)nn3)[C@@H](O)[C@H]2O)c2nc(N)[nH]c(=O)c21; experiment: Substrate activity at recombinant His6/SUMO-tagged human cN3B (1 to 300 residues) expressed in Escherichia coli BL21(DE3) RIL assessed as compound dephosphorylation by Kcat up to 30 mins by malachite green dye based assay

- Stability [1]: Stable
- Stability [2]: Unstable
- inhibition [3]: inactive
- Activity [4]: Active
- Activity [5]: Active
Molecule: C[n+]1cn([C@@H]2O[C@H](Cn3cc(OCP(=O)([O-])O)nn3)[C@@H](O)[C@H]2O)c2nc(N)[nH]c(=O)c21

- IC50 (m7GpppX diphosphatase): 1.8 µM
Molecule: C[n+]1cn([C@@H]2O[C@H](COP(=O)([O-])OP(=O)(O)O)[C@@H](O)[C@H]2O)c2nc(N)[nH]c(=O)c21

- Stability [1]: Stable
- Stability [2]: Unstable
- inhibition [3]: inactive
- inhibition [6]: inactive
- Activity [7]: inactive
- Activity [4]: inactive
- Activity [5]: inactive
Molecule: C[n+]1cn([C@@H]2O[C@H](Cn3cc(CCP(=O)([O-])O)nn3)[C@@H](O)[C@H]2O)c2nc(N)[nH]c(=O)c21

- Activity [5]: Active
- IC50 (m7GpppX diphosphatase): 42.2 µM
Molecule: C[n+]1cn([C@@H]2O[C@H](COP(=O)([O-])O)[C@@H](O)[C@H]2O)c2nc(N)[nH]c(=O)c21

- Stability [1]: Stable
- Stability [2]: Unstable
- inhibition [3]: inactive
- inhibition [6]: inactive
- Activity [7]: inactive
- Activity [4]: inactive
- Activity [5]: inactive
Molecule: C[n+]1cn([C@@H]2O[C@H](Cn3cc(CP(=O)([O-])O)nn3)[C@@H](O)[C@H]2O)c2nc(N)[nH]c(=O)c21

- Stability [1]: Stable
- Stability [2]: Unstable
- IC50 [8]: 128 µM
- IC50 [9]: 87.8 µM
- inhibition [3]: 67%
- inhibition [6]: 51%
- Activity [5]: inactive
- Kd [10]: 5.9 µM
- IC50 (m7GpppX diphosphatase): 244 µM
- Ki [11]: 382 µM
- Ratio IC50 (Homo sapiens): 3
- inhibition [12]: Active
- inhibition [13]: inactive
Molecule: C[n+]1cn([C@@H]2O[C@H](Cn3cc(P(=O)([O-])O)nn3)[C@@H](O)[C@H]2O)c2nc(N)[nH]c(=O)c21

B1: 7-methylguanosine phosphate-specific 5'-nucleotidase (Homo sapiens), Q969T7 (protein)
chain: T1 sequence (whole entry)
- Km [14]: 82 µM
- kcat/Km [15]: 11000 M⁻¹ s⁻¹
- Vmax [16]: 1.6 µmol/min/mg
- kcat [17]: 1.16 s⁻¹
